The source of these data is paper PMC11995724, “Antibiotic target discovery by integrated phenotypic and activity-based profiling of electrophilic fragments” (Cell chemical biology, 2025).

The data set can be described thus: in vitro. Particulars: human, hek293t cells.
`Cn1cc(C=C(C#N)C(=O)NC2CCCC2)c(-c2ccncc2)n1` [9-L16, 2-cyano-N-cyclopentyl-3-[1-methyl-3-(pyridin-4-yl)-1H-pyrazol-4-yl]prop-2-enamide]: the viability at 48 h, 25 µM was 119%.
Consider `COc1ccccc1C=CC=C(C#N)C(=O)Nc1ccccn1` [9-L17, 2-cyano-5-(2-methoxyphenyl)-N-(pyridin-2-yl)penta-2,4-dienamide], for which the viability at 48 h, 25 µM was found to be 91.4%.
Regarding `CC(=O)N(C)c1cccc(NC(=O)C(C#N)=Cc2ccco2)c1` [9-L18, 2-cyano-3-(furan-2-yl)-N-[3-(N-methylacetamido)phenyl]prop-2-enamide], the viability at 48 h, 25 µM was 104%.
As for `N#CC1=C(N2CCOCC2)SC(c2cccc([N+](=O)[O-])c2)NC1=O` (stereo not shown) [9-L19, 6-(morpholin-4-yl)-2-(3-nitrophenyl)-4-oxo-3,4-dihydro-2H-1,3-thiazine-5-carbonitrile], the viability at 48 h, 25 µM is 129%.
As for `CC(C)Oc1ccccc1C=C(C#N)C(=O)Nc1ccc(Cl)cc1` [9-L20, N-(4-chlorophenyl)-2-cyano-3-[2-(propan-2-yloxy)phenyl]prop-2-enamide], the figure is 89.4%.
The same measure for `CC(NC(=O)C(C#N)=Cc1ccc(C(F)(F)F)cc1)c1ccccc1` (stereo not shown) [9-L21, 2-cyano-N-(1-phenylethyl)-3-[4-(trifluoromethyl)phenyl]prop-2-enamide]: 2.11%; for `CC(O)=C(C#N)C(=O)Nc1ccc(-c2ccccc2Cl)c(Cl)c1` [9-L22, 2-cyano-N-{2,2'-dichloro-[1,1'-biphenyl]-4-yl}-3-hydroxybut-2-enamide]: 117%.
As for `N#CC(=Cc1cnn(Cc2ccccc2)c1)C(=O)Nc1nccs1` [9-M03, 3-(1-benzyl-1H-pyrazol-4-yl)-2-cyano-N-(1,3-thiazol-2-yl)prop-2-enamide], the figure is 111%; as for `Cc1ccc(C=C(C#N)C(N)=O)c(C)c1` [9-M04, 2-cyano-3-(2,4-dimethylphenyl)prop-2-enamide], 115%; as for `N#CC(=Cc1cccc2nccn12)C(=O)Nc1ccccc1` [9-M05, 2-cyano-3-{imidazo[1,2-a]pyridin-5-yl}-N-phenylprop-2-enamide], 125%.
Regarding `N#CC(=Cc1ccc(F)c(F)c1)C(=O)NC1CC1` [9-M06, 2-cyano-N-cyclopropyl-3-(3,4-difluorophenyl)prop-2-enamide], the viability at 48 h, 25 µM was 109%.
As for `CC(C)NC(=O)C(C#N)=Cc1ccc(Cl)c(Cl)c1` [9-M07, 2-cyano-3-(3,4-dichlorophenyl)-N-(propan-2-yl)prop-2-enamide], the figure is 30.2%; as for `CSc1ccc(C=C(C#N)C(=O)Nc2ccc(C(=O)O)cc2)cc1` [9-M08, 4-{2-cyano-3-[4-(methylsulfanyl)phenyl]prop-2-enamido}benzoic acid], 118%; as for `N#CC(=Cc1ccsc1)C(=O)Nc1cccc2ccccc12` [9-M09, 2-cyano-N-(naphthalen-1-yl)-3-(thiophen-3-yl)prop-2-enamide], 120%.
Turning to `Cn1cc(C=C(C#N)C(=O)Nc2ccc(Oc3ccccc3)cc2)cn1` [9-M10, 2-cyano-3-(1-methyl-1H-pyrazol-4-yl)-N-(4-phenoxyphenyl)prop-2-enamide], the viability at 48 h, 25 µM is 109%.
As for `CC(C)NC(=O)C(C#N)=Cc1ccc(C#N)cc1` [9-M11, 2-cyano-3-(4-cyanophenyl)-N-(propan-2-yl)prop-2-enamide], the figure is 123%.
As for `CCc1oc2ccccc2c1C=C(C#N)C(=O)NC1CC1` [9-M12, 2-cyano-N-cyclopropyl-3-(2-ethyl-1-benzofuran-3-yl)prop-2-enamide], the figure is 74.5%; as for `COc1c(Cl)cc(Cl)cc1C=C(C#N)C(N)=O` [9-M13, 2-cyano-3-(3,5-dichloro-2-methoxyphenyl)prop-2-enamide], 137%; as for `N#CC(=Cc1cnc(-c2ccccc2)nc1)C(=O)NCc1ccco1` [9-M14, 2-cyano-N-[(furan-2-yl)methyl]-3-(2-phenylpyrimidin-5-yl)prop-2-enamide], 143%.
The same measure for `N#CC(=Cc1ccccc1)C(=O)NC1CC1` [9-M15, 2-cyano-N-cyclopropyl-3-phenylprop-2-enamide]: 128%; for `C=CCNC(=O)C(C#N)=Cc1cnn(-c2ccc(Cl)cc2)c1` [9-M16, 3-[1-(4-chlorophenyl)-1H-pyrazol-4-yl]-2-cyano-N-(prop-2-en-1-yl)prop-2-enamide]: 115%; for `COCCNC(=O)C(C#N)=Cc1sccc1C` [9-M17, 2-cyano-N-(2-methoxyethyl)-3-(3-methylthiophen-2-yl)prop-2-enamide]: 131%.
Regarding `Cc1cnc(-c2cccc(NC(=O)C(C#N)=Cc3ccco3)c2)o1` [9-M18, 2-cyano-3-(furan-2-yl)-N-[3-(5-methyl-1,3-oxazol-2-yl)phenyl]prop-2-enamide], the viability at 48 h, 25 µM was 116%.
The same measure for `Cc1ccc(NC(=O)C(C#N)=Cc2ccsc2)c(C)c1` [9-M19, 2-cyano-N-(2,4-dimethylphenyl)-3-(thiophen-3-yl)prop-2-enamide]: 102%; for `Cc1nn(C)c(C)c1C=C(C#N)C(=O)Nc1cccc(Cl)c1C` [9-M20, N-(3-chloro-2-methylphenyl)-2-cyano-3-(1,3,5-trimethyl-1H-pyrazol-4-yl)prop-2-enamide]: 111%.
For the molecule `N#CC(=Cc1ccccc1OC(F)F)C(=O)Nc1ccccc1Cl` [9-M21, N-(2-chlorophenyl)-2-cyano-3-[2-(difluoromethoxy)phenyl]prop-2-enamide], the viability at 48 h, 25 µM worked out at 119%.
As to `N#CC(=Cc1cccs1)C(=O)Nc1cccc2ccccc12` [9-M22, 2-cyano-N-(naphthalen-1-yl)-3-(thiophen-2-yl)prop-2-enamide], the viability at 48 h, 25 µM was determined as 100%.
As to `Cc1ccoc1C=C(C#N)C(=O)NCCc1ccccc1` [9-N03, 2-cyano-3-(3-methylfuran-2-yl)-N-(2-phenylethyl)prop-2-enamide], the viability at 48 h, 25 µM is 93.9%.
The same measure for `CC(NC(=O)C(C#N)=Cc1cccc(Cl)c1Cl)c1ccccc1` (stereo not shown) [9-N04, 2-cyano-3-(2,3-dichlorophenyl)-N-(1-phenylethyl)prop-2-enamide]: 3.94%.
As for `N#CC(=Cc1ccc(Cl)c([N+](=O)[O-])c1)C(=O)N1CCCC1` [9-N05, 3-(4-chloro-3-nitrophenyl)-2-(pyrrolidine-1-carbonyl)prop-2-enenitrile], the figure is 5.4%.
The same measure for `N#CC(C(=O)NC1CCCCC1)=C1N=C(N)c2ccccc21` [9-N06, 2-(3-amino-1H-isoindol-1-ylidene)-2-cyano-N-cyclohexylacetamide]: 80.2%.
As to `Cc1cc(C=C(C#N)C(=O)Nc2cn[nH]c2)c(C)n1-c1ccc(F)cc1` [9-N07, 2-cyano-3-[1-(4-fluorophenyl)-2,5-dimethyl-1H-pyrrol-3-yl]-N-(1H-pyrazol-4-yl)prop-2-enamide], the viability at 48 h, 25 µM was 95.1%.
The same measure for `N#CC(=Cc1c[nH]c2ccccc12)C(=O)Nc1cccc2ncccc12` [9-N08, 2-cyano-3-(1H-indol-3-yl)-N-(quinolin-5-yl)prop-2-enamide]: 101%; for `Cc1cc(CNC(=O)C(C#N)=Cc2ccco2)ccc1N(C)C` [9-N09, 2-cyano-N-{[4-(dimethylamino)-3-methylphenyl]methyl}-3-(furan-2-yl)prop-2-enamide]: 113%.
